Results: ChEMBL document CHEMBL4177603 (Bioorg Med Chem Lett, 2017)
Values after ≈ are worked out from the molar mass of the structure shown.

Key:
[1] = biological target: T1, Sodium channel protein type 9 subunit alpha (Homo sapiens, UniProt Q15858); assay: Inhibition of human Nav1.7 expressed in HEK cells by automated patchXpress electrophysiology method; type: cell-based
[2] = biological target: Sodium channel protein type 5 subunit alpha (Homo sapiens, UniProt Q14524); assay: Inhibition of human Nav1.5 expressed in HEK cells by automated patchXpress electrophysiology method; type: ADME, cell-based
[3] = biological target: T1, Sodium channel protein type 9 subunit alpha; assay: Inhibition of human Nav1.7 expressed in HEK cells by patch clamp electrophysiology method; type: cell-based
[4] = Solubility of the compound in aqueous buffer at pH 3; type: physicochemical
[5] = Solubility of the compound in aqueous buffer at pH 4.2; type: physicochemical
[6] = Solubility of the compound in aqueous buffer at pH 5.1; type: physicochemical
[7] = Solubility of the compound in aqueous buffer at pH 7.2; type: physicochemical

T1 sequence (Q15858 whole entry): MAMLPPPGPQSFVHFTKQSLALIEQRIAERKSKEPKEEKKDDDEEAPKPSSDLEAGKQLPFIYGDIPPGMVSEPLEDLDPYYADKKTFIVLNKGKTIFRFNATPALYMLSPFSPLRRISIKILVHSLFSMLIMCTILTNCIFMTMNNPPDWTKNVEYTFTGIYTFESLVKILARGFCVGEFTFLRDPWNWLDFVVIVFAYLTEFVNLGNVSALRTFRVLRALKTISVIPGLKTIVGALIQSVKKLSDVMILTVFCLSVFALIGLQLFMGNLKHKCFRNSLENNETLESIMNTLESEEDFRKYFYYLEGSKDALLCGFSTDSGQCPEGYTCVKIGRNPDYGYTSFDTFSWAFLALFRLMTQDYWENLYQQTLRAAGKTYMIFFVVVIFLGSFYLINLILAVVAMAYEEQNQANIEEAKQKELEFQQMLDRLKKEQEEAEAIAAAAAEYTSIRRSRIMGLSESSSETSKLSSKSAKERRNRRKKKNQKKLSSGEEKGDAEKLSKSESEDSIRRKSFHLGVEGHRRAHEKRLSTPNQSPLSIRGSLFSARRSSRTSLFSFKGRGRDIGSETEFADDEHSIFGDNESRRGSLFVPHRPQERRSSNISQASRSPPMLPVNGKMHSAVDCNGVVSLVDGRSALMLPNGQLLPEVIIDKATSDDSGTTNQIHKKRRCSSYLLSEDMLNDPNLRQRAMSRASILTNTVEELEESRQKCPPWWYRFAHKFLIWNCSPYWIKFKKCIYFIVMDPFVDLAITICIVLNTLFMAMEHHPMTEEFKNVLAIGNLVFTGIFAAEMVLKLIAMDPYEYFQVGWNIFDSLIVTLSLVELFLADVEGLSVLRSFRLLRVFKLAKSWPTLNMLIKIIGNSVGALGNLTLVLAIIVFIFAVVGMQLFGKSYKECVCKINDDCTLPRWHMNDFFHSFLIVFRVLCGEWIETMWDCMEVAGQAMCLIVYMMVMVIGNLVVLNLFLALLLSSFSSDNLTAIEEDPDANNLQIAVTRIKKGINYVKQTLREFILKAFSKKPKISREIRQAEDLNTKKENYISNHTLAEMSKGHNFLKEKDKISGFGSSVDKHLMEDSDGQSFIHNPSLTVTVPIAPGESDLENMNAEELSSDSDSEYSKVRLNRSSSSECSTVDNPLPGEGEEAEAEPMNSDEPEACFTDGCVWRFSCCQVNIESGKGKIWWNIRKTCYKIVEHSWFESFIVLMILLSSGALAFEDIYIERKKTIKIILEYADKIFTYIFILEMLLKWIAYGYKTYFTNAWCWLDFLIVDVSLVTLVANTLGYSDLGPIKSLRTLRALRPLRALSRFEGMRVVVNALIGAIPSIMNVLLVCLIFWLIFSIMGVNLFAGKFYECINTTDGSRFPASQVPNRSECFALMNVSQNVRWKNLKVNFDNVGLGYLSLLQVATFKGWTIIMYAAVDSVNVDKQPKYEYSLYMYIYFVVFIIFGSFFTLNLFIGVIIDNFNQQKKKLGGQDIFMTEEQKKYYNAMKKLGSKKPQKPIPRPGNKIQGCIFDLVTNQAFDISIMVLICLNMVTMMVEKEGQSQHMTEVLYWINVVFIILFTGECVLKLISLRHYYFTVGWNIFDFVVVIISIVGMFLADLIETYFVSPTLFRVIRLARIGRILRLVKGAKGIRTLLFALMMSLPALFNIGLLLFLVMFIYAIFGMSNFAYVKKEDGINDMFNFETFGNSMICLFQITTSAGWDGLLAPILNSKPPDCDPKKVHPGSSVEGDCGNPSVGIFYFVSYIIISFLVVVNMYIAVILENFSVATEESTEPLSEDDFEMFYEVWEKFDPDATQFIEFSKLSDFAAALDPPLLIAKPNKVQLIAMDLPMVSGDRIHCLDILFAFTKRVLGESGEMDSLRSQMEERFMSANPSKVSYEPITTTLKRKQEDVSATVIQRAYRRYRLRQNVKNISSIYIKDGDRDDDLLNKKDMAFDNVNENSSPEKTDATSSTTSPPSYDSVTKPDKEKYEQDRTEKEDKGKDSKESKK
Sodium channel protein type 5 subunit alpha, sequence (Q14524 whole entry): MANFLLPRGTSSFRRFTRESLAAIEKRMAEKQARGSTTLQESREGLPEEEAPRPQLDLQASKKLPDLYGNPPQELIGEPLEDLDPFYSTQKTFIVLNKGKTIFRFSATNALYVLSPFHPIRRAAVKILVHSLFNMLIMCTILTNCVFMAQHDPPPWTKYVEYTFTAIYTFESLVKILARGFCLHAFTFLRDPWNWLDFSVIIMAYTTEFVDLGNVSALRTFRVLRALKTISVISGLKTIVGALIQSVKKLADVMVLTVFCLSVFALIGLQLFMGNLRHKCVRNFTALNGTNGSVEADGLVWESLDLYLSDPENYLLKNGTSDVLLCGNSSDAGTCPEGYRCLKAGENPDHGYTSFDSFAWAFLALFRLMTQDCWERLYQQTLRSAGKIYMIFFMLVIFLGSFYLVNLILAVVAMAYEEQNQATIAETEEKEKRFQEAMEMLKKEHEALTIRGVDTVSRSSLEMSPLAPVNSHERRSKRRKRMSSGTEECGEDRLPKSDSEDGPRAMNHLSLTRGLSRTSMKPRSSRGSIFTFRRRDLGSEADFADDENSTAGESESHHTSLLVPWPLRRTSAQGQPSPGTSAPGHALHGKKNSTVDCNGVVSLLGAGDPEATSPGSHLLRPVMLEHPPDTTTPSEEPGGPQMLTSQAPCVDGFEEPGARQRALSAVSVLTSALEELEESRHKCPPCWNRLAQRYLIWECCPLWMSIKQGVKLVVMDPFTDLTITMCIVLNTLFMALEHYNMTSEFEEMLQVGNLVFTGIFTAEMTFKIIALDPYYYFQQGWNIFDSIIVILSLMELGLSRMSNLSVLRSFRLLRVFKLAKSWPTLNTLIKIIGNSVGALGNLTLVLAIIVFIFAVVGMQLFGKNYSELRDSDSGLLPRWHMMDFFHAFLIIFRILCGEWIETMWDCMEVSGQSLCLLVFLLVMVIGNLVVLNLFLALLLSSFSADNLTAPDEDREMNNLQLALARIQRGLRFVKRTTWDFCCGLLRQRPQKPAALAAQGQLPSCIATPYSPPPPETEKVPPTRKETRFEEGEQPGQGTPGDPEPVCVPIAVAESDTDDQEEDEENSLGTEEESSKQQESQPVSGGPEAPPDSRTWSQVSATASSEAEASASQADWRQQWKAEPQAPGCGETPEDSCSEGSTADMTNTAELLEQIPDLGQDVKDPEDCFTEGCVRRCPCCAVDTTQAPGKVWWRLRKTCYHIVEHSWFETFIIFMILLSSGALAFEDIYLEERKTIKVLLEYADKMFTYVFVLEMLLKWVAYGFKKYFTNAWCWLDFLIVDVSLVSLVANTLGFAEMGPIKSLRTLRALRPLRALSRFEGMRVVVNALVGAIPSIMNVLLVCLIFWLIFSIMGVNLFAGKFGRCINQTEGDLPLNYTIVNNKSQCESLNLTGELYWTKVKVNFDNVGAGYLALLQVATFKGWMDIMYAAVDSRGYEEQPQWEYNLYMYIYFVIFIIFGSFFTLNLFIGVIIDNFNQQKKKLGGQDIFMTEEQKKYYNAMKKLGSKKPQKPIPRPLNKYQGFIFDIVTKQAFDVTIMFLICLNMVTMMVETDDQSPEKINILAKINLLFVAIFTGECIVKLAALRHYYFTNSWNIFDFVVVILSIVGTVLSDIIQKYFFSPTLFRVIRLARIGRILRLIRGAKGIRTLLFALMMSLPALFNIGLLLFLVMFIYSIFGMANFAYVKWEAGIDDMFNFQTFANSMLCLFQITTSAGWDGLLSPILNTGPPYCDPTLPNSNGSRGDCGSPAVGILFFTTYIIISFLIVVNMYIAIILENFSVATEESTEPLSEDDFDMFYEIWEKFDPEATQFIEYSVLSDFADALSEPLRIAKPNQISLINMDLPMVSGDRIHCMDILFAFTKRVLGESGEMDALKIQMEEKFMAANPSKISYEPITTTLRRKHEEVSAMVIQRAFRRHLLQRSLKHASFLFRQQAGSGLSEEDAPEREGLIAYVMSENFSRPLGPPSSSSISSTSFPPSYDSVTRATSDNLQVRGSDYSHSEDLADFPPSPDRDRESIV

| Compound | IC50 [1] | IC50 [3] | further results |
| --- | --- | --- | --- |
| O=S(=O)(Nc1nncs1)c1cc(Cl)c(Oc2ccc(Cl)cc2-c2ccnc(CN3CCC3)c2)cc1F | 4.8 nM |  |  |
| COCCOCCOCCOCCOCCOCCOCCOCCOCCOCCOCCOCCC(=O)N1CCC(CCNCc2cc(-c3cc(-c4cccc(C(F)(F)F)c4)ccc3Oc3ccc(S(=O)(=O)Nc4ncns4)cc3C#N)ccn2)CC1 | < 10 nM |  | IC50 [2]: > 3000 nM |
| Cc1cc(C)n2c1C=C1C=CC(CCCCC(=O)NCCOCCOCCC(=O)N3CCC(CCNCc4cc(-c5cc(-c6cccc(C(F)(F)F)c6)ccc5Oc5ccc(S(=O)(=O)Nc6ncns6)cc5C#N)ccn4)CC3)=[N+]1[B-]2(F)F |  | 0.12 nM |  |
| CC(=O)N1CCC(CCNCc2cc(-c3cc(-c4cccc(C(F)(F)F)c4)ccc3Oc3ccc(S(=O)(=O)Nc4ncns4)cc3C#N)ccn2)CC1 | < 4 nM |  |  |
| C#CCCOc1ccc(C(=O)c2ccc(CCC(=O)N3CCC(CCNCc4cc(-c5cc(-c6cccc(C(F)(F)F)c6)ccc5Oc5ccc(S(=O)(=O)Nc6ncns6)cc5C#N)ccn4)CC3)cc2)cc1 |  | 0.1 nM |  |
| N#Cc1cc(S(=O)(=O)Nc2ncns2)ccc1Oc1ccc(-c2cccc(C(F)(F)F)c2)cc1-c1ccnc(CN)c1 |  | 0.1 nM |  |
| N#Cc1cc(S(=O)(=O)Nc2ncns2)ccc1Oc1ccc(Cl)cc1-c1cccc(CNCCC2CCNCC2)c1 | 0.7 nM |  |  |
| NCc1cc(-c2cc(-c3cccc(C(F)(F)F)c3)ccc2Oc2cc(F)c(S(=O)(=O)Nc3nncs3)cc2Cl)ccn1 |  |  | solubility [4]: 6 µg/mL (≈ 9.43 µM); solubility [5]: < 0.5 µg/mL; solubility [6]: < 0.5 µg/mL; solubility [7]: < 0.5 µg/mL |
| N#Cc1cc(S(=O)(=O)Nc2ncns2)ccc1Oc1ccc(Cl)cc1-c1cccc(CN)c1 | 8.5 nM |  |  |
| O=S(=O)(Nc1cscn1)c1cc(Cl)c(Oc2ccc(Cl)cc2-c2ccnc(CN3CCC3)c2)cc1F | 13.2 nM |  |  |
